Measured values reported in patent US20250129078A1, “ERBB2 INHIBITORS” (Cogent Biosciences, Inc., priority 2023, published 2025).
Structures can show the parent of a compound that is named as a salt.

How the values were obtained:
ErbB2 V777L = ErbB2 V777L (Homo sapiens (Human), UniProt P04626, V777L); assay: ErbB enzyme assay (CisBio HTRF-KinEASE-TK), ErbB2 V777L; format: biochemical
In short: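 HTRF KinEASE-TK tyrosine-kinase read-out of substrate phosphorylation after a final 1 h at ambient temperature, from the 655/620 nm emission ratio.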

EGFR WT = EGFR WT (Homo sapiens (Human), UniProt P00533); assay: ErbB enzyme assay (CisBio HTRF-KinEASE-TK), EGFR WT; format: biochemical; conditions: ATP at Km (25 μM), 1 h incubation
Chain of EGFR WT (P00533 25-1210): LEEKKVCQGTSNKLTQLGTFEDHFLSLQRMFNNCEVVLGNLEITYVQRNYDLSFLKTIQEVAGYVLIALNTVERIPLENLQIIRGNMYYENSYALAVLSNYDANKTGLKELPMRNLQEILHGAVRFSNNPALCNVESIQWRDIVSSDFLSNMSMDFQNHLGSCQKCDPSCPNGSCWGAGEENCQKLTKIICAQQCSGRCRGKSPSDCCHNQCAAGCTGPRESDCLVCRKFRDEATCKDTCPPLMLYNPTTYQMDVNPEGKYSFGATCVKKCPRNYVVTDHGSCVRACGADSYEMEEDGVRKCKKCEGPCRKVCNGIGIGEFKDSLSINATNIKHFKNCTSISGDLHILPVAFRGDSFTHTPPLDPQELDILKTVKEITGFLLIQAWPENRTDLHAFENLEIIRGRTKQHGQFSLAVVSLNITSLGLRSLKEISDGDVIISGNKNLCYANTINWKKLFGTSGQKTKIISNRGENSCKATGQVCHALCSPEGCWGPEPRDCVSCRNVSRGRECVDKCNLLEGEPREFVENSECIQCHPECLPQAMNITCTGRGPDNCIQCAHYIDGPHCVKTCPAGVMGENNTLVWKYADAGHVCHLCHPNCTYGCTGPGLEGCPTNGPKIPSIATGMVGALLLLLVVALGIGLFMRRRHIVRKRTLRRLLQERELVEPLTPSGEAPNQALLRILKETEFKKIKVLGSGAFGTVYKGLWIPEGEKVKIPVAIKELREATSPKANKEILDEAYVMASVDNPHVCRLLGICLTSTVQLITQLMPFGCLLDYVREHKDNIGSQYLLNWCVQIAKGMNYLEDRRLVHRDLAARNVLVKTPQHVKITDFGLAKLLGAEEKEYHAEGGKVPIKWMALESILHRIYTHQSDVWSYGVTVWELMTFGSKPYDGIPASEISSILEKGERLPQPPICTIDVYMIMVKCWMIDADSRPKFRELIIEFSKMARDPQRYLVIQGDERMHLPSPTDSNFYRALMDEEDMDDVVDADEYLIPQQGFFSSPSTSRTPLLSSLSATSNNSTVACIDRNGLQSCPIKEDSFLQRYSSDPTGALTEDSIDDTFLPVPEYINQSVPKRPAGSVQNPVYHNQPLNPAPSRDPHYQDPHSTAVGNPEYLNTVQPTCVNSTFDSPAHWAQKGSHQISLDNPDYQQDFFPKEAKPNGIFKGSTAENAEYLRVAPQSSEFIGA
In short: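 Compounds, serially diluted three-fold, were incubated with enzyme for 1 h at ambient temperature. Detection reagents were then added for a further hour, and the 655/620 nm HTRF ratio was normalised to uninhibited and pre-quenched controls. IC50 was fitted with a four-parameter logistic model.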

Chain of ErbB2 V777L (P04626 23-1255 V777L): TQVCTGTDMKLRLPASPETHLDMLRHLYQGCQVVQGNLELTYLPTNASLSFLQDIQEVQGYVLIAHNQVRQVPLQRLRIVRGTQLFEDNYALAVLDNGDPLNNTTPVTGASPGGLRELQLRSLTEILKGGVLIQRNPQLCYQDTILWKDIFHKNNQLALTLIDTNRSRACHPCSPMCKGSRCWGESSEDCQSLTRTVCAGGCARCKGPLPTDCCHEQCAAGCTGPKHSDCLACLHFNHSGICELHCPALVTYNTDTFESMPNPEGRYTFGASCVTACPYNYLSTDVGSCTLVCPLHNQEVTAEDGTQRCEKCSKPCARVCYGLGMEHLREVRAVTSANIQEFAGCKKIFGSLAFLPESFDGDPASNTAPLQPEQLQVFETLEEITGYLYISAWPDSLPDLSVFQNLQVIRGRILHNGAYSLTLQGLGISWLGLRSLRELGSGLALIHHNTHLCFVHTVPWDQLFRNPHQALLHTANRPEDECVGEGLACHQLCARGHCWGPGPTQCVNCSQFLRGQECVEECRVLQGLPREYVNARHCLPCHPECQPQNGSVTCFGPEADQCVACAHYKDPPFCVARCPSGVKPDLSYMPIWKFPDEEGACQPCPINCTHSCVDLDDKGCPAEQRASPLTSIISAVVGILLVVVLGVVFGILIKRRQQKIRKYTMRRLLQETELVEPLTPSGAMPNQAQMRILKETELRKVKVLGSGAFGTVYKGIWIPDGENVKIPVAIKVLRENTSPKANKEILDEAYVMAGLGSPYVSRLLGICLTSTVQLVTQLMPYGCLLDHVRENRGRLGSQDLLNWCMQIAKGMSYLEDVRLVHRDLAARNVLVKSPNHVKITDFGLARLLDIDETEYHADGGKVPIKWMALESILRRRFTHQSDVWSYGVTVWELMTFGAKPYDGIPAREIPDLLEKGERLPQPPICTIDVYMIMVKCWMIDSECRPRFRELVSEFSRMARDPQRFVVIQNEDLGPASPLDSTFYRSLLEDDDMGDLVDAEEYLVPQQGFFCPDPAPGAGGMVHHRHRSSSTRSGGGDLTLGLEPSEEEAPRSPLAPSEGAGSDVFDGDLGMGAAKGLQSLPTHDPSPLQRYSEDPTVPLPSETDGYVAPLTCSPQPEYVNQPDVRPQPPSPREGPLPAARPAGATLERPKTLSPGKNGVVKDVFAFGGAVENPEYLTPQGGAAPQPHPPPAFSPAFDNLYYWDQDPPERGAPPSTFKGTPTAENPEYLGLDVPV

IC50 (ErbB2 V777L) [µM] | IC50 (EGFR WT) [µM] | Compound
0.05 to 0.1 | 0.1 to 0.5 | C=CC(=O)N1CCN(c2ccc3ncnc(Nc4cc(C)c(Oc5ccc6c(c5)ncn6C(F)F)cc4OC)c3n2)CC1 [Compound 370, 1-(4-(4-((4-((1-(difluoromethyl)-1H-benzo[d]imidazol-5-yl)oxy)-2-methoxy-5-methylphenyl)amino)pyrido[3,2-d]pyrimidin-6-yl)piperazin-1-yl)prop-2-en-1-one]
0.5 to 1 | 0.5 to 1 | C=C(F)C(=O)N1CCN(c2ncc3ncnc(Nc4ccc(Oc5ccc6c(c5)nnn6C)c(C)c4)c3n2)C[C@@H]1C(F)(F)F [Compound 231, (R)-2-fluoro-1l-(4-(8-((3-methyl-4-((1-methyl-1H-benzo[d][1,2,3]triazol-5-yl)oxy)phenyl)amino)pyrimido[5,4-d]pyrimidin-2-yl)-2-(trifluoromethyl)piperazin-1-yl)prop-2-en-1-one]
0.05 to 0.1 | 0.1 to 0.5 | C=CC(=O)N1CCN(c2ncc3ncnc(Nc4ccc(Oc5ccc6c(c5)nnn6C)c(C)c4)c3n2)[C@@H](C)C1 [Compound 18, (S)-1-(3-methyl-4-(8-((3-methyl-4-((1-methyl-1H-benzo[d][1,2,3]triazol-5-yl)oxy)phenyl)amino)pyrimido[5,4-d]pyrimidin-2-yl)piperazin-1-yl)prop-2-en-1-one 2,2,2-trifluoroacetate]
< 0.05 | < 0.05 | C=CC(=O)N1CCN(c2ncc3ncnc(Nc4ccc(Oc5ccc6c(c5)nnn6C)c(C)c4F)c3n2)C2CC21 (stereo not shown) [Compound 48, 1-(5-(8-((2-fluoro-3-methyl-4-((1-methyl-1H-benzo[d][1,2,3]triazol-5-yl)oxy)phenyl)amino)pyrimido[5,4-d]pyrimidin-2-yl)-2,5-diazabicyclo[4.1.0]heptan-2-yl)prop-2-en-1-one]
0.05 to 0.1 | 0.1 to 0.5 | C=C(COC)C(=O)NC1CCN(c2ncc3ncnc(Nc4ccc(Oc5ccc6c(c5)nnn6C)c(C)c4)c3n2)CC1 [Compound 212, 2-(methoxymethyl)-N-(1-(8-((3-methyl-4-((1-methyl-1H-benzo[d][1,2,3]triazol-5-yl)oxy)phenyl)amino)pyrimido [5,4-d]pyrimidin-2-yl)piperidin-4-yl)acrylamide]
0.1 to 0.5 | 0.05 to 0.1 | C=CC(=O)N[C@H]1CCCN(c2ccc3ncnc(Nc4ccc(Oc5ccc6c(c5)nnn6C)c(C)c4F)c3n2)[C@@H]1C (single isomer, unassigned) [Compound 348]
0.1 to 0.5 | 0.1 to 0.5 | Cc1cc(Nc2ncnc3cnc(N4CCN(C(=O)/C=C/CN5CCOCC5)CC4)nc23)ccc1Oc1ccc2c(c1)nnn2C [Compound 53, (E)-1-(4-(8-((3-methyl-4-((1-methyl-1H-benzo[d][1,2,3]triazol-5-yl)oxy)phenyl)amino)pyrimido [5,4-d]pyrimidin-2-yl)piperazin-1-yl)-4-morpholinobut-2-en-1-one formate]
0.1 to 0.5 | ≥ 1 | C=CC(=O)N1CCCN(c2ncc3ncnc(Nc4ccc(Oc5ccc6c(c5)ncn6C)c(C)c4)c3n2)C[C@H]1C [Compound 143, (R)-1-(2-methyl-4-(8-((3-methyl-4-((1-methyl-1H-benzo[d]imidazol-5-yl)oxy)phenyl)amino)pyrimido[5,4-d]pyrimidin-2-yl)-1,4-diazepan-1-yl)prop-2-en-1-one]
0.5 to 1 | ≥ 1 | C=CC(=O)N1CCN(c2ncc3ncnc(Nc4ccc(Oc5ccc6c(c5)nnn6C)c(C)c4)c3n2)CC[C@H]1C [Compound 152, (R)-1-(7-methyl-4-(8-((3-methyl-4-((1-methyl-1H-benzo[d][1,2,3]triazol-5-yl)oxy)phenyl)amino)pyrimido[5,4-d]pyrimidin-2-y1)-1,4-diazepan-1-yl)prop-2-en-1-one]
0.1 to 0.5 | 0.1 to 0.5 | C=CC(=O)N1CCN(c2ncc3ncnc(Nc4ccc(Oc5ccc6c(c5)nnn6C)c(C)c4F)c3c2F)CC1 [Compound 103, 1-(4-(5-fluoro-4-((2-fluoro-3-methyl-4-((1-methyl-1H-benzo[d][1,2,3]triazol-5-yl)oxy)phenyl)amino)pyrido[3,4-d]pyrimidin-6-yl)piperazin-1-yl)prop-2-en-1-one]
0.5 to 1 | ≥ 1 | C=C(COC)C(=O)N1CCN(c2ccc3ncnc(Nc4ccc(Oc5ccc6c(c5)nnn6C)c(C)c4)c3n2)CC1 [Compound 366, 2-(methoxymethyl)-1-(4-(4-((3-methyl-4-((1-methyl-1H-benzo[d][1,2,3]triazol-5-yl)oxy)phenyl)amino)pyrido[3,2-d]pyrimidin-6-yl)piperazin-1-yl)prop-2-en-1-one]
0.05 to 0.1 | 0.1 to 0.5 | C=CC(=O)N1CCN(c2ncc3ncnc(Nc4ccc(Oc5ccc6c(c5)nnn6C)c(C)c4)c3n2)C[C@@H]1C [Compound 2, (S)-1-(2-methyl-4-(8-((3-methyl-4-((1-methyl-1H-benzo[d][1,2,3]triazol-5-yl)oxy)phenyl)amino)pyrimido[5,4-d]pyrimidin-2-y1)piperazin-1-yl)prop-2-en-1-one]
0.1 to 0.5 | 0.1 to 0.5 | C=CC(=O)N1C2CCC1CN(c1ccc3ncnc(Nc4cc(C)c(Oc5ccc6c(c5)nnn6C)cc4OC)c3n1)C2 [Compound 80, 1-(3-(4-((2-methoxy-5-methyl-4-((1-methyl-1H-benzo[d][1,2,3]triazol-5-yl)oxy)phenyl)amino)pyrido[3,2-d]pyrimidin-6-yl)-3,8-diazabicyclo[3.2.1]octan-8-yl)prop-2-en-1-one]
0.5 to 1 | 0.1 to 0.5 | C=CC(=O)N1CCN(c2ncc3ncnc(Nc4ccc(Oc5cc6nnn(C)c6c(F)c5C)c(C)c4F)c3n2)C[C@H]1C [Compound 176, (R)-1-(4-(8-((2-fluoro-4-((7-fluoro-1,6-dimethyl-1H-benzo[d][1,2,3]triazol-5-yl)oxy)-3-methylphenyl)amino)pyrimido[5,4-d]pyrimidin-2-yl)-2-methylpiperazin-1-yl)prop-2-en-1-one]
0.05 to 0.1 | 0.05 to 0.1 | Cc1cc(Nc2ncnc3cnc(N4CCN(C(=O)/C=C/CN(C)C)CC4)nc23)ccc1Oc1ccc2c(c1)nnn2C [Compound 58, (E)-4-(dimethyl-amino)-1-(4-(8-((3-methyl-4-((1-methyl-1H-benzo[d][1,2,3]triazol-5-yl)oxy)phenyl)amino)pyrimido [5,4-d]pyrimidin-2-yl)piperazin-1-yl)but-2-en-1-one]
0.1 to 0.5 | 0.1 to 0.5 | C=CC(=O)N1CCN(c2ncc3ncnc(Nc4ccc(Oc5cc6nnn(C)c6cn5)c(C)c4)c3n2)CC1 [Compound 132, 1-(4-(8-((3-methyl-4-((3-methyl-3H-[1,2,3]triazolo[4,5-c]pyridin-6-yl)oxy)phenyl)amino)pyrimido[5,4-d]pyrimidin-2-yl)piperazin-1-yl)prop-2-en-1-one]
0.1 to 0.5 | < 0.05 | C=CC(=O)N1CCN(c2ccc3ncnc(Nc4ccc(Oc5cnc6c(c5)ncn6C(F)F)c(C)c4F)c3n2)C[C@H]1C [Compound 261, (R)-1-(4-(4-((4-((3-(difluoromethyl)-3H-imidazo[4,5-b]pyridin-6-yl)oxy)-2-fluoro-3-methylphenyl)amino)pyrido[3,2-d]pyrimidin-6-yl)-2-methylpiperazin-1-yl)prop-2-en-1-one]
